According to paper PMC8986850, “Development and exploration of novel substituted thiosemicarbazones as inhibitors of aldose reductase via in vitro analysis and computational study” (Scientific Reports, 2022):

Key:
ALR2 = molecular target: T1, ALR2 (Bos taurus, UniProt P16116); assay: ALR2 enzyme inhibition assay (enzyme extracted from calf lenses); assay type: biochemical, bovine; details: for IC50: bovine lens ALR2, substrate DL-glyceraldehyde, mean ± SEM of three measurements; for inhibition at 100 µM: bovine lens ALR2, 100 µM inhibitor, read-out: I (%, 100 µM) (ALR2) (converted)
T1 construct: from tissue; host or cells: calf eye lenses
Experimental: Compounds 3a-o were tested against ALR2 to evaluate their inhibitory potential against aldose reductase whereas selectivity was determined via performing ALR1 inhibition assay. For the enzyme inhibition assay, ALR2 and ALR1 were extracted from bovine sources (ALR2 from eyes and ALR1 from kidneys). Moreover, inhibitions studies were also carried out on the expressed ALR2 (human AKR1B1) and inhibition data for ALR2- bovine source and expressed enzyme was compared and analyzed. The protocols for enzyme extraction and expression in the bacterial system are included in the section of “Supporting information”. […] For the purpose of comparison and validation of enzyme inhibition data, these compounds were tested against human AKR1B1 (hAKR1B1) expressed in E. coli BL21 (DE3).
(§1) For the determination of enzyme activity of ALR1 and ALR2, 100 µL of reaction mixture was composed of 20 µL of buffer (100 mM sodium phosphate, pH 6.2), 30 µL of enzyme extract, 20 µL of substrate (10 mM), 20 µL of cofactor (0.1 mM of NADPH) and 10 µL of test compound (1 mM)[6],[21]. The reaction mixture without cofactor was incubated at 32°C for 10 min, then the enzymatic reaction was initiated with the addition of NADPH and monitored for 5 minutes. Similar protocols were followed for ALR1 and ALR2, however the substrate was different for each enzyme, with sodium-D-glucoronate and DL-glyceraldehyde used as the substrates for the ALR1 and ALR2 assays, respectively. […] In addition, similar protocols were adopted for human AKR1B1 that was expressed in E. coli BL21 (DE3), though the determined protein concentration was 12 µg/mL for the expressed enzyme. Detailed protocols for the preparation of ALR1, ALR2 and expressed human AKR1B1 can be found in the supporting information.
(§2) The newly synthesized N-substitute thiosemicarbazones (3a-o) were dissolved in 100% DMSO and diluted with deionized water, keeping the DMSO concentration equal to 0.1% in the assay.
The extraction of ALR2 was carried out from calf lenses via adopting method described in
in (Hayman and Kinoshita 1965) with little modification. The lenses were obtained from slaughterhouse immediately after calf’s slaughtering and stored at -20^◦C until further use. These lense (150-170g) were subjected to homogenization with about three times volume of cold distilled water and then centrifugation was carried out for the homogenate at 10,000 x g for 14 minutes for removal of insoluble lipids particles. Precipitates were discarded and supernatant layer was subjected to 40% saturation of ammonium sulphate and again centrifugation was performed with same parameters for 14 minutes and again precipitates were discarded. […] In the last step, the supernatant was subjected to 75% of saturation with ammonium sulphate to obtain ALR2. Now, the precipitates were collected instead supernatant because precipitated protein was the expected desired ALR2. The precipitated enzyme (ALR2) was redissolved in 50mM solution of sodium chloride and dialyzed for 24 hours against 50mM solution (3.5L) of NaCl. The volume was recorded before and after dialysis, then dialyzed material was treated with liquid nitrogen. The extracted ALR2 was stored in 1mL Eppendorf tube in deep freezer at -80 ^◦C till further enzymatic studies.

human AKR1B1 (hAKR1B1) = molecular target: T2, human AKR1B1 (hAKR1B1) (Homo sapiens, UniProt P15121); assay: Inhibition of expressed human AKR1B1 (E. coli BL21 (DE3)); assay type: biochemical; details: for IC50: human AKR1B1 expressed in E. coli BL21 (DE3), mean ± SEM of three measurements; for inhibition at 100 µM: human AKR1B1 expressed in E. coli, 100 µM inhibitor, read-out: I (%, 100 µM) (AKR1B1)
T2 construct: made in house; host or cells: E. coli BL21 (DE3)
Experimental: For the enzyme inhibition assay, ALR2 and ALR1 were extracted from bovine sources (ALR2 from eyes and ALR1 from kidneys). Moreover, inhibitions studies were also carried out on the expressed ALR2 (human AKR1B1) and inhibition data for ALR2- bovine source and expressed enzyme was compared and analyzed. The protocols for enzyme extraction and expression in the bacterial system are included in the section of “Supporting information”. […] For the purpose of comparison and validation of enzyme inhibition data, these compounds were tested against human AKR1B1 (hAKR1B1) expressed in E. coli BL21 (DE3).
as §1, with “The reaction mixture without cofactor was incubated at 32°C for 10 min, then the enzymatic reaction was initiated with the addition of NADPH and monitored for 5 minutes.” left out
as §2
The expression plasmid for aldose reductase (pDONR223_AKR1B1_WT) was gift from Addgene in stable culture. Streaking of this culture has been carried out on LB Agar plate then incubated overnight, after growth of colonies , inoculation was performed in LB medium then incubated this medium in shaking incubator at 37 °C. After 48 hours turbidity was measured when OD=0.6 then some of bacterial growth was prepared as 50% glycerol stock. Others are subjected to plasmid isolation following method Miniprep. Meanwhile E. Coli BL21 De3 cells were made competent then transformation with extracted plasmid (AKR1B1) had been carried out heat shock method. Transformed cell ( E.Coli BL21 DE3+AKR1B1) were grown in 37 °C in shaking incubator for 48 hr. The selection for transformed cells was carried out with the help of antibiotic (spectinomycin 50µg/ml). […] For the expression of aldose reductase , E.coli BL21DE3 were induced with of IPTG(Isopropyl-d-thiogalactopyranoside)[3]. […] The expressed enzyme was stabilized by addition 10 mM Tris–HCl buffer, 0.5 mM EDTA, 5 mM β-marcaptoethanol at pH 8.0 and 20% (v/v) glycerol. Cells were lysed with lysis buffer and then precipitation with ammonium sulfate up to 80% saturation was done . the expressed enzyme was dialyzed overnight against tris buffer. Protein quantification was performed following Bradford protein assay. Aliqoutes were stored at -80 refrigerator.

ALR1 = molecular target: T3, ALR1 (Bos taurus, UniProt Q3ZCJ2); assay: ALR1 enzyme inhibition assay (enzyme extracted from calf kidneys); assay type: biochemical, bovine; details: for inhibition at 100 µM: bovine kidney ALR1, 100 µM inhibitor, read-out: I (%, 100 µM) (ALR1)
T3 construct: The calf’s kidneys were obtained after slaughtering and dissection; from tissue; host or cells: calf kidneys
T3 sequence (Q3ZCJ2 whole entry): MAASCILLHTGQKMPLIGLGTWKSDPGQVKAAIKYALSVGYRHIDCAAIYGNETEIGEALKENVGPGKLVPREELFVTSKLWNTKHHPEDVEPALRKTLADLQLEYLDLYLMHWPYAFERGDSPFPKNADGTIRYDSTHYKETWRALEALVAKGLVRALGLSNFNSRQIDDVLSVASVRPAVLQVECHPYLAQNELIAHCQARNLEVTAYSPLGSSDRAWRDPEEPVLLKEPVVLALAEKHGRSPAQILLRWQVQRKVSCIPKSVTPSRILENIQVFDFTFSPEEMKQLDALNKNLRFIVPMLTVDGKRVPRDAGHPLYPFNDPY
Experimental: Compounds 3a-o were tested against ALR2 to evaluate their inhibitory potential against aldose reductase whereas selectivity was determined via performing ALR1 inhibition assay. For the enzyme inhibition assay, ALR2 and ALR1 were extracted from bovine sources (ALR2 from eyes and ALR1 from kidneys). Moreover, inhibitions studies were also carried out on the expressed ALR2 (human AKR1B1) and inhibition data for ALR2- bovine source and expressed enzyme was compared and analyzed. The protocols for enzyme extraction and expression in the bacterial system are included in the section of “Supporting information”. […] For the purpose of comparison and validation of enzyme inhibition data, these compounds were tested against human AKR1B1 (hAKR1B1) expressed in E. coli BL21 (DE3). We found a similar pattern of enzyme inhibition for the synthesized compounds against extracted enzyme (ALR2) as well as expressed enzyme (hAKR1B1).
as §1, §2
The calf’s kidneys were obtained after slaughtering and dissection, dissolved in 3 volumes of sodium phosphate buffer (10mM) which is composed of 2.0 mM EDTA, 2.5mM β-mercaptoethanol, 0.25M solution of sucrose at pH 7.25. First, the homogenisation was carried out then centrifugation of the homogenate was performed at 12000 x g at 0-2^◦C for 30 minutes. The precipitates containing insoluble lipids were discarded and the collected supernatant layer was treated with 40% saturation of ammonium sulphate. This liquid mixture was subjected to centrifugation at 11000 x g at 0-2^◦C for 30 minutes. Now, precipitates were again discarded and supernatant was collected and treated with 50% ammonium sulphate and procedure was repeated in the same manner as in previous step. In the last step, the saturation of ammonium sulphate was increased up to 75% and supernatant was subjected to same parameter of centrifugation. At this final step, precipitates were obtained and supernatant layer was discarded. The obtained material of precipitates was composed of ALR1and redissolved in initial buffer that was used during homogenisation. Finally, material was dialyzed overnight with same buffer system. The dialyzed fractions containing ALR1 were stored at -80^◦C for further use[5].

[1] = DPPH radical scavenging activity; details: 100 µM compound, methanolic DPPH 0.025 mg/mL, 517 nm
Experimental: DPPH (2,2-diphenyl-1-picrylhydrazyl) was used to explore the free radical quenching ability of 3a-o so as to provide a gauge of their antioxidant potential. The experiment was conducted according to a previously reported protocol with slight modifications. Percent free radical scavenging activities (% FRSA) of 3a-o were determined by spectrophotometric analysis at 517 nm using a homogenous mixture of methanolic DPPH (0.025 mg/mL) and a 100 µM solution of the tested compound, with ascorbic acid used as a positive control (Fig. 3).

SMILES	IC50 (ALR2) [nM]	IC50 (human AKR1B1 (hAKR1B1)) [nM]	inhibition at 100 µM (ALR1) [%]	% FRSA (percent free radical scavenging activity) [1] [%]	melting point [°C]	IC50 (ALR1; bovine kidney ALR1, substrate sodium-D-glucoronate, mean ± SEM of three measurements) [nM]	inhibition at 100 µM (ALR2) [%]	inhibition at 100 µM (human AKR1B1 (hAKR1B1)) [%]
CC(C)(C)c1cc(C=NNC(=S)Nc2cccc(Cl)c2Cl)c(O)c(C(C)(C)C)c1 [Compound 3j, 2-(3,5-di-tert-butyl-2-hydroxybenzylidene)-N-(2,3-dichlorophenyl)hydrazine carbothioamide]	4010 ± 2.1	2750 ± 3	4.27 to 26.2	89.75	193 to 195	–	–	–
CCCC(CCC)C(=O)O [Valproic acid, reference compound]	–	–	–	–	–	49310 ± 5	–	–
CC(C)c1ccc(NC(=S)NN=Cc2cc(C(C)(C)C)cc(C(C)(C)C)c2O)cc1 [Compound 3n, 2-(3,5-di-tert-butyl-2-hydroxybenzylidene)-N-(4-isopropylphenyl)hydrazine carbothioamide]	–	–	–	7.91	189 to 191	–	≤ 39.1	22.6
Cc1ccc(NC(=S)NN=Cc2cc(C(C)(C)C)cc(C(C)(C)C)c2O)c(C)c1 [Compound 3b, 2-(3,5-di-tert-butyl-2-hydroxybenzylidene)-N-(2,4-dimethylphenyl)hydrazine carbothioamide]	–	–	≤ 31.6	84.05	186 to 188	–	≤ 44.6	27.4
Cc1ccc(NC(=S)NN=Cc2cc(C(C)(C)C)cc(C(C)(C)C)c2O)cc1 [Compound 3k, 2-(3,5-di-tert-butyl-2-hydroxybenzylidene)-N-(p-tolyl)hydrazinecarbothioamide]	–	–	≤ 31.6	86.60	186 to 188	–	≤ 44.6	41.2
O=C1O[C@H]([C@@H](O)CO)C(O)=C1O [Ascorbic acid, reference compound]	–	–	–	89.88	–	–	–	–
CC(C)(C)c1cc(C=NNC(=S)Nc2ccc(F)cc2)c(O)c(C(C)(C)C)c1 [Compound 3g, 2-(3,5-di-tert-butyl-2-hydroxybenzylidene)-N-(4-fluorophenyl)hydrazine carbothioamide]	2380 ± 2.8	3950 ± 3.8	–	85.89	176 to 178	–	–	–
Cc1ccccc1NC(=S)NN=Cc1cc(C(C)(C)C)cc(C(C)(C)C)c1O [Compound 3d, 2-(3,5-di-tert-butyl-2-hydroxybenzylidene)-N-(o-tolyl)hydrazinecarbothioamide]	–	–	–	84.58	182 to 184	–	–	3.56
CC(C)(C)c1cc(C=NNC(=S)NC2CCCCC2)c(O)c(C(C)(C)C)c1 [Compound 3h, N-cyclohexyl-2-(3,5-di-tert-butyl-2-hydroxybenzylidene)hydrazinecarbothioamide]	–	–	–	83.54	168 to 170	–	≤ 39.1	38
CC(C)(C)c1cc(C=NNC(=S)NCc2ccccc2)c(O)c(C(C)(C)C)c1 [Compound 3e, N-benzyl-2-(3,5-di-tert-butyl-2-hydroxybenzylidene)hydrazinecarbothioamide]	–	–	–	83.20	190 to 192	–	–	12.3
CC(C)(C)c1cc(C=NNC(=S)Nc2ccc(Br)cc2)c(O)c(C(C)(C)C)c1 [Compound 3i, N-(4-bromophenyl)-2-(3,5-di-tert-butyl-2-hydroxybenzylidene)hydrazine carbothioamide]	–	–	–	81.80	184 to 186	–	≤ 39.1	22.3
CC(C)(C)c1cc(C=NNC(=S)Nc2ccc(Cl)cc2)c(O)c(C(C)(C)C)c1 [Compound 3l, N-(4-chlorophenyl)-2-(3,5-di-tert-butyl-2-hydroxybenzylidene)hydrazine carbothioamide]	1460 ± 5	1650 ± 4	–	61.55	188 to 190	–	81.5	–
